Counter-ions that a name gives are not always drawn.
target: T1, human V1a receptor (Homo sapiens, UniProt P37288); experiment: human V1a receptor binding study (3H-Vasopressin, SPA beads, HEK293 membranes); settings: membranes of HEK293 cells transiently transfected with human V1a receptor; 3H-Vasopressin; Ki calculated using the Cheng-Prussoff equation; read-out: pKi (hV1a) (converted)
T1 construct: expressed in transfected cells; host or cells: HEK293 cells, transiently transfected; cell membranes prepared
T1 sequence (P37288 whole entry): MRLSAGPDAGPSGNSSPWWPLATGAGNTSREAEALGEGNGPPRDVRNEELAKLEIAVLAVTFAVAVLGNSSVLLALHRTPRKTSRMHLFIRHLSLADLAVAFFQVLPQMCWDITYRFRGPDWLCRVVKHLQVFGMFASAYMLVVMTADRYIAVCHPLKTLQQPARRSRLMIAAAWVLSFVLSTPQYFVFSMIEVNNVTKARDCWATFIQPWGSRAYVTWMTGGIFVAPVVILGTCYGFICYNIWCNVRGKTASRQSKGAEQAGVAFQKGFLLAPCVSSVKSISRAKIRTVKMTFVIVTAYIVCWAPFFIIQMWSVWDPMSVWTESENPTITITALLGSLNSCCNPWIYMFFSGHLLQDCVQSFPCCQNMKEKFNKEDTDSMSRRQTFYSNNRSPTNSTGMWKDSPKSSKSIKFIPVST
Description: The human V1a receptor was cloned by RT-PCR from total human liver RNA. The coding sequence was subcloned in an expression vector after sequencing to confirm the identity of the amplified sequence. […] Cell membranes were prepared from HEK293 cells transiently transfected with the expression vector and grown in 20 liter fermenters with the following protocol.
50 g of cells are resuspended in 30 ml freshly prepared ice cold Lysis buffer (50 mM HEPES, 1 mM EDTA, 10 mM magnesium dichloride adjusted to pH=7.4+complete cocktail of protease inhibitor (Roche Diagnostics)). Homogenized with Polytron for 1 min and sonicated on ice for 2×2 minutes at 80% intensity (Vibracell sonicator). The preparation is centrifuged 20 min at 500 g at 4° C., the pellet is discarded and the supernatant centrifuged 1 hour at 43,000 g at 4° C. (19,000 rpm). The pellet is resuspended in 12.5 ml Lysis buffer+12.5 ml Sucrose 20% and homogenized using a Polytron for 1-2 min. The protein concentration is determined by the Bradford method and aliquots are stored at −80° C. until use. For binding studies 60 mg Yttrium silicate SPA beads (Amersham) are mixed with an aliquot of membrane in binding buffer (50 mM Tris, 120 mM sodium chloride, 5 mM potassium chloride, 2 mM Calcium dichloride, 10 mM magnesium dichloride) for 15 minutes with mixing. 50 μl of bead/membrane mixture is then added to each well of a 96 well plate, followed by 50 μl of 4 nM 3H-Vasopressin (American Radiolabeled Chemicals). For total binding measurement 100 μl of binding buffer are added to the respective wells, for non-specific binding 100 μl of 8.4 mM cold vasopressin and for compound testing 100 μl of a serial dilution of each compound in 2% dimethyl sulfoxide. The plate is incubated 1 h at room temperature, centrifuged 1 min at 1000 g and counted on a Packard Top-Count. Non-specific binding counts are subtracted from each well and data is normalized to the maximum specific binding set at 100%. To calculate an IC 50 the curve is fitted using a non-linear regression model (XLfit) and the Ki is calculated using the Cheng-Prussoff equation.

Structure (SMILES) | Ki [nM]
CCC(C)O[C@H]1CC[C@H](c2nnc3n2-c2ccc(Cl)cc2CN(C(=O)OC(C)(C)C)C3)CC1 (mixture of isomers) [Example 25, (RS)-trans-1-(4-sec-Butoxy-cyclohexyl)-8-chloro-4H,6H-2,3,5,10b-tetraaza-benzo[e]azulene-5-carboxylic acid tert-butyl ester] | 3.72
CCC(C)O[C@H]1CC[C@H](c2nnc3n2-c2ccc(Cl)cc2CNC3)CC1 (mixture of isomers) [Example 26, (RS)-trans-1-(4-sec-Butoxy-cyclohexyl)-8-chloro-5,6-dihydro-4H-2,3,5,10b-tetraaza-benzo[e]azulene hydrochloride] | 12.6
CCC(C)O[C@H]1CC[C@H](c2nnc3n2-c2ccc(Cl)cc2CN(C)C3)CC1 (mixture of isomers) [Example 27, (RS)-trans-1-(4-sec-Butoxy-cyclohexyl)-8-chloro-5-methyl-5,6-dihydro-4H-2,3,5,10b-tetraaza-benzo[e]azulene] | 2.09
COCC(C)O[C@H]1CC[C@H](c2nnc3n2-c2ccc(Cl)cc2CN(C(=O)OC(C)(C)C)C3)CC1 (mixture of isomers) [Example 45, (RS)-trans-8-Chloro-1-[4-(2-methoxy-1-methyl-ethoxy)-cyclohexyl]-4H,6H-2,3,5,10b-tetraaza-benzo[e]azulene-5-carboxylic acid tert-butyl ester] | 3.72
COCC(C)O[C@H]1CC[C@H](c2nnc3n2-c2ccc(Cl)cc2CNC3)CC1 (mixture of isomers) [Example 46, (RS)-trans-8-Chloro-1-[4-(2-methoxy-1-methyl-ethoxy)-cyclohexyl]-5,6-dihydro-4H-2,3,5,10b-tetraaza-benzo[e]azulene hydrochloride] | 117
COCC(C)O[C@H]1CC[C@H](c2nnc3n2-c2ccc(Cl)cc2CN(C)C3)CC1 (mixture of isomers) [Example 47, (RS)-trans-8-Chloro-1-[4-(2-methoxy-1-methyl-ethoxy)-cyclohexyl]-5-methyl-5,6-dihydro-4H-2,3,5,10b-tetraaza-benzo[e]azulene] | 11.2
CC(CO)O[C@H]1CC[C@H](c2nnc3n2-c2ccc(Cl)cc2CN(C(=O)OC(C)(C)C)C3)CC1 (mixture of isomers) [Example 50, (RS)-trans-8-Chloro-1-[4-(2-hydroxy-1-methyl-ethoxy)-cyclohexyl]-4H,6H-2,3,5,10b-tetraaza-benzo[e]azulene-5-carboxylic acid tert-butyl ester] | 2.69
CC(CO)O[C@H]1CC[C@H](c2nnc3n2-c2ccc(Cl)cc2CNC3)CC1 (mixture of isomers) [Example 51, (RS)-trans-2-[4-(8-Chloro-5,6-dihydro-4H-2,3,5,10b-tetraaza-benzo[e]azulen-1-yl)-cyclohexyloxy]-propan-1-ol hydrochloride] | 186
CC(CO)O[C@H]1CC[C@H](c2nnc3n2-c2ccc(Cl)cc2CN(C)C3)CC1 (mixture of isomers) [Example 52, (RS)-trans-2-[4-(8-Chloro-5-methyl-5,6-dihydro-4H-2,3,5,10b-tetraaza-benzo[e]azulen-1-yl)-cyclohexyloxy]-propan-1-ol] | 19.1
CC(CF)O[C@H]1CC[C@H](c2nnc3n2-c2ccc(Cl)cc2CN(C)C3)CC1 (mixture of isomers) [Example 53, (RS)-trans-8-Chloro-1-[4-(2-fluoro-1-methyl-ethoxy)-cyclohexyl]-5-methyl-5,6-dihydro-4H-2,3,5,10b-tetraaza-benzo[e]azulene] | 2.82
CC(CC(F)(F)F)O[C@H]1CC[C@H](c2nnc3n2-c2ccc(Cl)cc2CN(C(=O)OC(C)(C)C)C3)CC1 (mixture of isomers) [Example 54, (RS)-trans-8-Chloro-1-[4-(3,3,3-trifluoro-1-methyl-propoxy)-cyclohexyl]-4H,6H-2,3,5,10b-tetraaza-benzo[e]azulene-5-carboxylic acid tert-butyl ester] | 8.51
CC(CC(F)(F)F)O[C@H]1CC[C@H](c2nnc3n2-c2ccc(Cl)cc2CNC3)CC1 (mixture of isomers) [Example 55, (RS)-trans-8-Chloro-1-[4-(3,3,3-trifluoro-1-methyl-propoxy)-cyclohexyl]-5,6-dihydro-4H-2,3,5,10b-tetraaza-benzo[e]azulene hydrochloride] | 75.9
CC(CC(F)(F)F)O[C@H]1CC[C@H](c2nnc3n2-c2ccc(Cl)cc2CN(C)C3)CC1 (mixture of isomers) [Example 56, (RS)-trans-8-Chloro-5-methyl-1-[4-(3,3,3-trifluoro-1-methyl-propoxy)-cyclohexyl]-5,6-dihydro-4H-2,3,5,10b-tetraaza-benzo[e]azulene] | 6.76
CC[C@H](C)O[C@H]1CC[C@H](c2nnc3n2-c2ccc(Cl)cc2CN(C)C3)CC1 (single isomer, unassigned) [Example 28, (+)-trans-1-(4-sec-Butoxy-cyclohexyl)-8-chloro-5-methyl-5,6-dihydro-4H-2,3,5,10b-tetraaza-benzo[e]azulene] | 1.58
CC[C@@H](C)O[C@H]1CC[C@H](c2nnc3n2-c2ccc(Cl)cc2CN(C)C3)CC1 (single isomer, unassigned) [Example 29, (−)-trans-1-(4-sec-Butoxy-cyclohexyl)-8-chloro-5-methyl-5,6-dihydro-4H-2,3,5,10b-tetraaza-benzo[e]azulene] | 1.58
CC(C)(C)OC(=O)N1Cc2cc(Cl)ccc2-n2c(nnc2[C@H]2CC[C@H](OC3CCCC3)CC2)C1 (stereo in doubt) [Example 36, trans-8-Chloro-1-(4-cyclopentyloxy-cyclohexyl)-4H,6H-2,3,5,10b-tetraaza-benzo[e]azulene-5-carboxylic acid tert-butyl ester] | 3.24
COC[C@H](C)O[C@H]1CC[C@H](c2nnc3n2-c2ccc(Cl)cc2CN(C)C3)CC1 (stereo in doubt) [Example 48, (+)-trans-8-Chloro-1-[4-(2-methoxy-1-methyl-ethoxy)-cyclohexyl]-5-methyl-5,6-dihydro-4H-2,3,5,10b-tetraaza-benzo[e]azulene] | 47.9
COC[C@@H](C)O[C@H]1CC[C@H](c2nnc3n2-c2ccc(Cl)cc2CN(C)C3)CC1 (stereo in doubt) [Example 49, (−)-trans-8-Chloro-1-[4-(2-methoxy-1-methyl-ethoxy)-cyclohexyl]-5-methyl-5,6-dihydro-4H-2,3,5,10b-tetraaza-benzo[e]azulene] | 5.5
CO[C@H]1CC[C@@H](c2nnc3n2-c2ccc(Cl)cc2CN(C)C3)CC1 [Example 1, cis-8-Chloro-1-(4-methoxy-cyclohexyl)-5-methyl-5,6-dihydro-4H-2,3,5,10b-tetraaza-benzo[e]azulene] | 93.3
CCO[C@H]1CC[C@H](c2nnc3n2-c2ccc(Cl)cc2CN(C(=O)OC(C)(C)C)C3)CC1 [Example 2, trans-8-Chloro-1-(4-ethoxy-cyclohexyl)-4H,6H-2,3,5,10b-tetraaza-benzo[e]azulene-5-carboxylic acid tert-butyl ester] | 2.4
CCO[C@H]1CC[C@H](c2nnc3n2-c2ccc(Cl)cc2CNC3)CC1 [Example 3, trans-8-Chloro-1-(4-ethoxy-cyclohexyl)-5,6-dihydro-4H-2,3,5,10b-tetraaza-benzo[e]azulene hydrochloride] | 63.1
CCO[C@H]1CC[C@H](c2nnc3n2-c2ccc(Cl)cc2CN(C)C3)CC1 [Example 4, trans-8-Chloro-1-(4-ethoxy-cyclohexyl)-5-methyl-5,6-dihydro-4H-2,3,5,10b-tetraaza-benzo[e]azulene] | 6.76
CCO[C@H]1CC[C@@H](c2nnc3n2-c2ccc(Cl)cc2CN(C(=O)OC(C)(C)C)C3)CC1 [Example 5, cis-8-Chloro-1-(4-ethoxy-cyclohexyl)-4H,6H-2,3,5,10b-tetraaza-benzo[e]azulene-5-carboxylic acid tert-butyl ester] | 14.1
CCO[C@H]1CC[C@@H](c2nnc3n2-c2ccc(Cl)cc2CNC3)CC1 [Example 6, cis-8-Chloro-1-(4-ethoxy-cyclohexyl)-5,6-dihydro-4H-2,3,5,10b-tetraaza-benzo[e]azulene hydrochloride] | 891
CCO[C@H]1CC[C@@H](c2nnc3n2-c2ccc(Cl)cc2CN(C)C3)CC1 [Example 7, cis-8-Chloro-1-(4-ethoxy-cyclohexyl)-5-methyl-5,6-dihydro-4H-2,3,5,10b-tetraaza-benzo[e]azulene] | 55
CC(C)O[C@H]1CC[C@H](c2nnc3n2-c2ccc(Cl)cc2CN(C(=O)OC(C)(C)C)C3)CC1 [Example 8, trans-8-Chloro-1-(4-isopropoxy-cyclohexyl)-4H,6H-2,3,5,10b-tetraaza-benzo[e]azulene-5-carboxylic acid tert-butyl ester] | 1.29
CC(C)O[C@H]1CC[C@H](c2nnc3n2-c2ccc(Cl)cc2CNC3)CC1 [Example 9, trans-8-Chloro-1-(4-isopropoxy-cyclohexyl)-5,6-dihydro-4H-2,3,5,10b-tetraaza-benzo[e]azulene hydrochloride] | 17.4
